According to the supplement of paper PMC10307832:

Tests used:
Experiment in all cases: relative viability (nuclei count vs DMSO), 5 days (fraction); higher = more cells survive
[1] = compound: Cn1c(Nc2ccc(C(F)(F)F)cc2)nc2cc(Oc3ccnc(-c4ncc(C(F)(F)F)[nH]4)c3)ccc21 [RAF265] + Cc1cc(Nc2cc(N3CCN(C)CC3)nc(Sc3ccc(NC(=O)C4CC4)cc3)n2)n[nH]1 [Tozasertib] (partner 0.1 µM)
Outline: (§1)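 One day after seeding in 1536-well plates, lung cancer cell lines were dosed by pin tool. Dosing was either single-drug or a fixed anchor-drug dose plus five library-drug doses (not always all listed) in √10 steps. After 5 days, nuclei were stained in one fix-and-stain step and counted on 4× images, and relative viability is the nuclei count of treated wells over that of vehicle wells, given as the median of duplicate plates.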

[2] = compound: C1=CC=C2C(=C1)C=CC(=C2SSC3=C(C=CC4=CC=CC=C43)O)O [IPA-3] + C[C@]1(O)C[C@@H](c2nc(-c3ccc4ccc(-c5ccccc5)nc4c3)c3c(N)nccn32)C1 [Linsitinib] (partner 1 µM)
Outline: as §1

[3] = compound: C1=CC=C2C(=C1)C=CC(=C2SSC3=C(C=CC4=CC=CC=C43)O)O [IPA-3] + COc1cc2c(Oc3ccc(NC(=O)C4(C(=O)Nc5ccc(F)cc5)CC4)cc3F)ccnc2cc1OCCCN1CCOCC1 [Foretinib] (partner 0.25 µM)
Outline: as §1

[4] = compound: Cn1c(Nc2ccc(C(F)(F)F)cc2)nc2cc(Oc3ccnc(-c4ncc(C(F)(F)F)[nH]4)c3)ccc21 [RAF265] + C[C@]1(O)C[C@@H](c2nc(-c3ccc4ccc(-c5ccccc5)nc4c3)c3c(N)nccn32)C1 [Linsitinib] (partner 1 µM)
Outline: as §1

Row | Cell Line | relative viability ([1]; first compound 0.01 µM) | relative viability ([1]; first compound 0.03162 µM) | relative viability ([1]; first compound 0.1 µM) | relative viability ([1]; first compound 0.3162 µM) | relative viability ([1]; first compound 1 µM) | relative viability ([2]; first compound 0.2 µM) | relative viability ([2]; first compound 0.6325 µM) | relative viability ([2]; first compound 2 µM) | relative viability ([2]; first compound 6.325 µM) | relative viability ([2]; first compound 20 µM) | relative viability ([3]; first compound 0.2 µM) | relative viability ([3]; first compound 0.6325 µM) | relative viability ([3]; first compound 2 µM) | relative viability ([3]; first compound 6.325 µM) | relative viability ([3]; first compound 20 µM) | relative viability ([4]; first compound 0.01 µM) | relative viability ([4]; first compound 0.03162 µM) | relative viability ([4]; first compound 0.1 µM) | relative viability ([4]; first compound 0.3162 µM) | relative viability ([4]; first compound 1 µM)
1 | 201T | 0.955 | 0.862 | 1.03 | 0.939 | 0.696 | 0.986 | 0.992 | 1.04 | 1.04 | 1.09 | 1.33 | 1.11 | 1.17 | 1.09 | 1.15 | 1.04 | 0.982 | 0.994 | 0.89 | 0.885
2 | A549 |  |  |  |  |  | 0.653 | 0.582 | 0.683 | 0.591 | 0.775 | 0.988 | 0.927 | 1.01 | 0.884 | 1.21 | 0.61 | 0.536 | 0.648 | 0.273 | 0.249
3 | A-427 | 0.218 | 0.213 | 0.205 | 0.109 | 0.089 | 1.13 | 0.951 | 1.18 | 1.12 | 1.13 | 1.1 | 1.08 | 1.11 | 1.06 | 1.14 | 1.15 | 1.07 | 1.16 | 0.676 | 0.499
4 | ABC-1 | 0.17 | 0.202 | 0.178 | 0.158 | 0.24 | 0.862 | 0.752 |  | 0.715 | 1.06 | 1.06 | 1.13 | 1 | 1.17 | 1.19 | 0.875 | 0.803 | 0.933 | 0.661 | 0.407
5 | BEN | 0.441 | 0.575 | 0.468 | 0.554 | 0.407 | 0.986 | 1.01 | 0.974 | 1.05 | 1.18 | 0.733 | 0.598 | 0.729 | 0.889 | 0.614 | 0.897 | 1.01 | 1.12 | 0.939 | 0.791
6 | CAL-12T | 0.392 | 0.308 | 0.364 | 0.306 | 0.172 | 0.93 | 0.715 | 0.914 | 0.79 | 0.935 | 1.16 | 1.01 | 1.12 | 0.976 | 1.14 | 0.969 | 0.659 | 0.671 | 0.43 | 0.4
7 | COR-L23 | 0.212 | 0.176 | 0.208 | 0.201 | 0.161 | 1.13 | 0.837 | 0.92 | 0.797 | 0.819 | 1.12 | 0.964 | 1.04 | 0.928 | 0.906 | 0.847 | 0.838 | 0.662 | 0.431 | 0.312
8 | COR-L 105 | 0.435 | 0.423 | 0.341 | 0.451 | 0.317 | 1.07 | 0.98 | 0.843 | 0.542 | 0.962 | 1.24 | 1.11 | 0.744 | 1.02 | 1.15 | 1.17 | 0.882 | 0.976 | 0.725 | 0.504
9 | Calu-6 |  |  |  |  |  | 1.14 | 0.937 | 0.878 | 0.952 | 0.958 | 1.01 | 0.95 | 0.96 | 0.808 | 0.932 | 0.94 | 0.83 | 0.523 | 0.279 | 0.223
10 | ChaGo-K-1 | 0.215 | 0.246 | 0.217 | 0.243 | 0.235 |  |  |  |  |  | 0.933 | 0.875 | 0.996 | 0.93 | 1.14 |  |  |  |  | 
11 | EBC-1 |  |  |  |  |  | 1.12 | 0.729 | 0.911 | 0.841 | 0.871 | 0.104 | 0.113 | 0.0992 | 0.121 | 0.108 | 0.963 | 0.856 | 0.754 | 0.577 | 0.503
12 | EKVX | 0.376 | 0.344 | 0.469 | 0.377 | 0.306 | 1.1 | 1.06 | 1.05 | 0.97 | 1.43 | 0.775 | 0.668 | 0.895 | 0.893 | 1.21 | 0.98 | 1.02 | 1.04 | 0.534 | 0.822
13 | EMC-BAC-2 | 0.28 | 0.266 | 0.209 | 0.202 | 0.082 | 0.855 | 0.808 | 0.884 | 0.804 | 0.907 | 1.07 | 1 | 1.07 | 1.01 | 1.22 | 0.761 | 0.793 | 0.734 | 0.596 | 0.348
14 | EPLC-272H | 0.218 | 0.328 | 0.275 | 0.257 | 0.199 | 1.16 | 1.13 | 1.22 | 1.14 | 1.41 | 0.901 | 0.639 | 0.655 | 0.795 | 0.857 | 1.08 | 1.02 | 1.03 | 0.608 | 0.431
15 | H3255 | 0.553 | 0.54 | 0.605 |  | 0.476 | 1.09 | 0.874 | 0.932 | 0.963 | 1.11 | 0.861 | 0.865 | 0.876 | 0.832 | 0.861 | 1 | 0.942 | 0.929 | 0.137 | 0.716
16 | HARA | 0.12 | 0.0972 | 0.13 | 0.0934 | 0.0806 | 1.08 | 0.912 | 0.935 | 0.916 | 1.02 | 1.23 | 0.854 | 0.943 | 0.855 | 1.31 | 0.904 | 0.715 | 0.891 | 0.608 | 0.406
17 | HCC-15 | 0.406 | 0.32 | 0.538 | 0.401 | 0.278 | 0.934 | 0.81 | 0.951 | 0.888 | 0.918 | 1.11 | 0.965 | 1.03 | 1.01 | 1.02 | 0.886 | 0.835 | 0.754 | 0.639 | 0.394
